The numbers were not newly measured in publication PMC12039075 (Structure (London, England : 1993), 2022), which cites them from elsewhere.

SMILES strings stand for the structures.

This data set deals with human nicotinic receptor (HNR) α4/β2 subunit.

For the compound `CN1CCC[C@H]1c1cccnc1` [nicotine], the published affinity range was 0.6 to 10 nM.
